# Experiments:
# Type in all cases: functional
# [1] = test system: SK-MEL-5; test: Growth inhibition of human SK-MEL-5 cells after 48 hrs by SRB assay; conditions: SK-MEL-5, 48 h
# [2] = test system: UACC-257; test: Growth inhibition of human UACC257 cells after 48 hrs by SRB assay; conditions: UACC-257, 48 h
# [3] = test system: UO-31; test: Growth inhibition of human UO31 cells after 48 hrs by SRB assay; conditions: UO-31, 48 h
# [4] = test system: KM12; test: Growth inhibition of human KM12 cells after 48 hrs by SRB assay; conditions: KM12, 48 h
# [5] = test system: OVCAR-8; test: Growth inhibition of human OVCAR8 cells after 48 hrs by SRB assay; conditions: OVCAR-8, 48 h
# [6] = test system: OVCAR-5; test: Growth inhibition of human OVCAR5 cells after 48 hrs by SRB assay; conditions: OVCAR-5, 48 h
# [7] = test system: OVCAR-3; test: Growth inhibition of human OVCAR-3 cells after 48 hrs by SRB assay; conditions: OVCAR-3, 48 h
# [8] = test system: SR; test: Growth inhibition of human SR cells after 48 hrs by SRB assay
# [9] = test system: RXF 393; test: Growth inhibition of human […] cells after 48 hrs by SRB assay; conditions: RXF 393, 48 h
# [10] = test system: ACHN; test: Growth inhibition of human ACHN cells after 48 hrs by SRB assay
# [11] = test system: A549; test: Growth inhibition of human A549 cells after 48 hrs by SRB assay; conditions: A549, 48 h
# [12] = test system: PC-3; test: Growth inhibition of human PC3 cells after 48 hrs by SRB assay; conditions: PC-3, 48 h
# [13] = test system: COLO 205; test: Growth inhibition of human COLO205 cells after 48 hrs by SRB assay; conditions: COLO 205, 48 h
# [14] = test system: NCI-H460; test: Growth inhibition of human NCI-H460 cells after 48 hrs by SRB assay; conditions: NCI-H460, 48 h
# [15] = test system: NCI-H226; test: Growth inhibition of human NCI-H226 cells after 48 hrs by SRB assay; conditions: NCI-H226, 48 h
# [16] = test system: EKVX; test: Growth inhibition of human EKVX cells after 48 hrs by SRB assay
# [17] = test system: U-251; test: Growth inhibition of human U251 cells after 48 hrs by SRB assay; conditions: U-251, 48 h
# [18] = test system: TK-10; test: Growth inhibition of human TK10 cells after 48 hrs by SRB assay; conditions: TK-10, 48 h
# [19] = test system: SF-539; test: Growth inhibition of human SF539 cells after 48 hrs by SRB assay; conditions: SF-539, 48 h
# [20] = test system: SNB-75; test: Growth inhibition of human SNB75 cells after 48 hrs by SRB assay; conditions: SNB-75, 48 h
# [21] = test system: HT-29; test: Growth inhibition of human HT-29 cells after 48 hrs by SRB assay; conditions: HT-29, 48 h
# [22] = test system: IGROV-1; test: Growth inhibition of human IGROV1 cells after 48 hrs by SRB assay; conditions: IGROV-1, 48 h
# [23] = test system: MDA-MB-231; test: Growth inhibition of human MDA-MB-231 cells after 48 hrs by SRB assay; conditions: MDA-MB-231, 48 h
# [24] = test system: HOP-62; test: Growth inhibition of human HOP62 cells after 48 hrs by SRB assay; conditions: HOP-62, 48 h
# [25] = test system: SF-268; test: Growth inhibition of human SF268 cells after 48 hrs by SRB assay; conditions: SF-268, 48 h
# [26] = test system: HL-60(TB); test: Growth inhibition of human HL-60(TB) cells after 48 hrs by SRB assay; conditions: HL-60, 48 h
# [27] = test system: K562; test: Growth inhibition of human K562 cells after 48 hrs by SRB assay; conditions: K562, 48 h
# [28] = test system: BT-549; test: Growth inhibition of human BT549 cells after 48 hrs by SRB assay; conditions: BT-549, 48 h
# [29] = test system: HCC 2998; test: Growth inhibition of human HCC2998 cells after 48 hrs by SRB assay; conditions: HCC 2998, 48 h
# [30] = test system: NCI-H23; test: Growth inhibition of human NCI-H23 cells after 48 hrs by SRB assay; conditions: NCI-H23, 48 h
# [31] = test system: SK-OV-3; test: Growth inhibition of human SKOV3 cells after 48 hrs by SRB assay; conditions: SK-OV-3, 48 h
# [32] = test system: NCI-H522; test: Growth inhibition of human NCI-H522 cells after 48 hrs by SRB assay; conditions: NCI-H522, 48 h
# [33] = test system: SK-MEL-2; test: Growth inhibition of human SK-MEL-2 cells after 48 hrs by SRB assay; conditions: SK-MEL-2, 48 h
# [34] = test system: UACC-62; test: Growth inhibition of human UACC62 cells after 48 hrs by SRB assay; conditions: UACC-62, 48 h
# [35] = test system: Malme-3M; test: Growth inhibition of human MALME-3M cells after 48 hrs by SRB assay
# [36] = test system: MCF7; test: Growth inhibition of human MCF7 cells after 48 hrs by SRB assay; conditions: MCF7, 48 h
# [37] = test system: 786-0; test: Growth inhibition of human 786-0 cells after 48 hrs by SRB assay; conditions: 786-0, 48 h
# [38] = test system: SNB-19; test: Growth inhibition of human SNB19 cells after 48 hrs by SRB assay; conditions: SNB-19, 48 h
# [39] = Growth inhibition of human Hs 578T cells after 48 hrs by SRB assay
# [40] = test system: SK-MEL-28; test: Growth inhibition of human SK-MEL-28 cells after 48 hrs by SRB assay; conditions: SK-MEL-28, 48 h
# [41] = test system: NCI-H322M; test: Growth inhibition of human NCI-H322M cells after 48 hrs by SRB assay
# [42] = test system: MOLT-4; test: Growth inhibition of human MOLT4 cells after 48 hrs by SRB assay; conditions: MOLT-4, 48 h
# [43] = test system: A498; test: Growth inhibition of human A498 cells after 48 hrs by SRB assay; conditions: A498, 48 h
# [44] = test system: CCRF-CEM; test: Growth inhibition of human CCRF-CEM cells after 48 hrs by SRB assay
# [45] = test system: CAKI-1; test: Growth inhibition of human Caki1 cells after 48 hrs by SRB assay; conditions: CAKI-1, 48 h
# [46] = test system: LOX IMVI; test: Growth inhibition of human LOXIMVI cells after 48 hrs by SRB assay
# [47] = test system: M14; test: Growth inhibition of human M14 cells after 48 hrs by SRB assay; conditions: M14, 48 h
# [48] = test system: OVCAR-4; test: Growth inhibition of human OVCAR4 cells after 48 hrs by SRB assay; conditions: OVCAR-4, 48 h
# [49] = test system: T47D; test: Growth inhibition of human T47D cells after 48 hrs by SRB assay
# [50] = test system: HCT-116; test: Growth inhibition of human HCT116 cells after 48 hrs by SRB assay; conditions: HCT-116, 48 h
# [51] = test system: RPMI-8226; test: Growth inhibition of human RPMI8226 cells after 48 hrs by SRB assay; conditions: RPMI-8226, 48 h
# [52] = test system: HCT-15; test: Growth inhibition of human HCT15 cells after 48 hrs by SRB assay; conditions: HCT-15, 48 h
# [53] = test system: DU-145; test: Growth inhibition of human DU145 cells after 48 hrs by SRB assay; conditions: DU-145, 48 h
# [54] = test system: SF-295; test: Growth inhibition of human SF295 cells after 48 hrs by SRB assay; conditions: SF-295, 48 h
# [55] = test system: SW-620; test: Growth inhibition of human SW620 cells after 48 hrs by SRB assay; conditions: SW-620, 48 h
# [56] = test system: SN12C; test: Growth inhibition of human SN12C cells after 48 hrs by SRB assay
# [57] = test system: HOP-92; test: Growth inhibition of human HOP92 cells after 48 hrs by SRB assay; conditions: HOP-92, 48 h
# [58] = test system: NCI/ADR-RES; test: Growth inhibition of human NCI/ADR-RES cells after 48 hrs by SRB assay
# [59] = test system: MDA-MB-435; test: Growth inhibition of human MDA-MB-435 cells after 48 hrs by SRB assay; conditions: MDA-MB-435, 48 h
smiles,measurement,setting,value
COc1ccc(NC(=O)n2nc(N)c3ccccc32)cc1OC,GI50,[1],27.9 µM
same,GI50,[2],73.6 µM
same,GI50,[3],28.5 µM
same,GI50,[4],67.9 µM
same,GI50,[5],39.7 µM
same,GI50,[6],45.5 µM
same,GI50,[7],92 µM
same,GI50,[8],29.3 µM
same,GI50,[9],95.2 µM
same,GI50,[10],58.3 µM
same,GI50,[11],45.8 µM
same,GI50,[12],35.5 µM
same,GI50,[13],85.9 µM
same,GI50,[14],34.5 µM
same,GI50,[15],83.1 µM
same,GI50,[16],54.1 µM
same,GI50,[17],61.7 µM
same,GI50,[18],92.4 µM
same,GI50,[19],95.9 µM
same,GI50,[20],30.6 µM
same,GI50,[21],48.2 µM
same,GI50,[22],18.1 µM
same,GI50,[23],53.6 µM
same,GI50,[24],75.2 µM
same,GI50,[25],49.6 µM
same,GI50,[26],27.9 µM
same,GI50,[27],41.2 µM
same,GI50,[28],25.9 µM
same,GI50,[29],61.1 µM
same,GI50,[30],83.5 µM
same,GI50,[31],> 100 µM
same,GI50,[32],34.9 µM
same,GI50,[33],37.2 µM
same,GI50,[34],52.3 µM
same,GI50,[35],> 100 µM
same,GI50,[36],29.5 µM
same,GI50,[37],> 100 µM
same,GI50,[38],> 100 µM
same,GI50,[39],43.3 µM
same,GI50,[40],> 100 µM
same,GI50,[41],> 100 µM
same,GI50,[42],39.4 µM
same,GI50,[43],30.3 µM
same,GI50,[44],36.7 µM
same,GI50,[45],> 100 µM
same,GI50,[46],49.3 µM
same,GI50,[47],64.9 µM
same,GI50,[48],63.2 µM
same,GI50,[49],33 µM
same,GI50,[50],43.5 µM
same,GI50,[51],21.1 µM
same,GI50,[52],44.1 µM
same,GI50,[53],73.1 µM
same,GI50,[54],37.6 µM
same,GI50,[55],> 100 µM
same,GI50,[56],> 100 µM
same,GI50,[57],24.6 µM
same,GI50,[58],37.6 µM
same,GI50,[59],> 100 µM
Nc1nn(C(=O)Nc2c(F)cccc2F)c2ccccc12,GI50,[1],39.7 µM
same,GI50,[2],71.7 µM
same,GI50,[3],18.6 µM
same,GI50,[4],86.2 µM
same,GI50,[5],44.2 µM
same,GI50,[6],< 100 µM
same,GI50,[7],65.7 µM
same,GI50,[8],12.9 µM
same,GI50,[9],20.2 µM
same,GI50,[10],50.1 µM
same,GI50,[11],48.5 µM
same,GI50,[12],< 100 µM
same,GI50,[13],< 100 µM
same,GI50,[14],33.4 µM
same,GI50,[15],98.5 µM
same,GI50,[16],84 µM
same,GI50,[17],96.1 µM
same,GI50,[18],< 100 µM
same,GI50,[19],31.4 µM
same,GI50,[21],74.6 µM
same,GI50,[22],7.7 µM
same,GI50,[23],98.8 µM
same,GI50,[24],51 µM
same,GI50,[25],36.2 µM
same,GI50,[26],33.2 µM
same,GI50,[27],< 100 µM
same,GI50,[28],28.8 µM
same,GI50,[29],95.8 µM
same,GI50,[30],95.6 µM
same,GI50,[31],< 100 µM
same,GI50,[32],55.1 µM
same,GI50,[33],< 100 µM
same,GI50,[34],43.9 µM
same,GI50,[35],< 100 µM
same,GI50,[36],60 µM
same,GI50,[37],< 100 µM
same,GI50,[38],< 100 µM
same,GI50,[39],73 µM
same,GI50,[40],56.3 µM
same,GI50,[41],< 100 µM
same,GI50,[42],32.7 µM
same,GI50,[43],31.4 µM
same,GI50,[45],45.3 µM
same,GI50,[46],49.3 µM
same,GI50,[47],74.7 µM
same,GI50,[48],57.8 µM
same,GI50,[49],68.7 µM
same,GI50,[50],34.8 µM
same,GI50,[51],16.1 µM
same,GI50,[52],40.9 µM
same,GI50,[53],62.3 µM
same,GI50,[54],54.8 µM
same,GI50,[55],38.3 µM
same,GI50,[56],< 100 µM
same,GI50,[57],17.3 µM
same,GI50,[58],56.5 µM
same,GI50,[59],54.9 µM
